Several values for one entry are separate records, joined by “and”; a condition that tells them apart may be missing. Equal values may be shown once. Read-outs that look alike come from different tables or passages of the source. Numbered stars: 1 amine (or outer) side, 2 acyl side, 3 side chain; on linkers, the order of the positions; unused ones are H or OH. Bridge positions count the residues as written; N and C are the ends. Square brackets hold non-standard residues; d marks the D form. Peptide text beside a SMILES is read from it. * marks the point of attachment. X1 = CC[C@H](C)[C@@H](N[*:1])[C@@H](O)CC(=O)O[C@H](C(=O)[C@H](C)C(=O)[*:2])C(C)C; NMeY = CN[C@@H](Cc1ccc(O)cc1)C(=O)O; dNMeL = CN[C@H](CC(C)C)C(=O)O; Pyruvoyl = CC(=O)C(=O)*
Columns and labels:
MM [1] = conditions: cited from earlier work
Description: Results of the VISTA trial were further supported by those of phase II trials: RETRIEVE (ORR: 40%) and SUMMIT (ORR: 35%, including minimal response while on BTZ treatment), and of the phase III APEX trial (crossover from DXM to BTZ), in which the overall and complete response rates with BTZ were 43% and 9%, respectively.[9], [10], [11]

[2] = set-up: method as in Moreau et al[25]; conditions: BTZ 1.3 mg/m^2 subcutaneously, reference study in MM patients; mean (SD), n = 10; ref Moreau et al[25]; cited from earlier work
MM [3] = conditions: phase III VISTA trial; single-agent BTZ re-treatment; cited from earlier work
Description: The feasibility of re‐treating MM patients with single‐agent bortezomib (BTZ) was first confirmed in the phase III VISTA trial,[8] where 47% of patients pre‐treated with BTZ‐based regimens during earlier phases of the disease responded again to the drug alone. This was further supported by the results of the phase II RETRIEVE and SUMMIT trials and the phase III APEX trial.[9], [10], [11]

[4] = BTZ plasma pharmacokinetics, non-compartmental; format: in vivo, human; conditions: mean (SD); for C max: NCA, UPLC-MS/MS
Protocol: (§1) Sixteen samples were collected from each patient to quantify plitidepsin whole blood and BTZ plasma concentrations at baseline and at different times 1 week after the first infusion. In patients treated at the RD, 15 additional samples were taken 1 week after the second plitidepsin infusion.
(§2) Continuous variables were presented with summary statistics and categorical variables in frequency tables. Time‐to‐event variables were calculated using Kaplan–Meier approach. Binomial exact distribution was used to calculate 95% confidence intervals (95%CIs) for categorical variables. Individual PK parameters were tabulated. Statistical analyses were performed using SAS v.9.2, (SAS Institute Inc), and PK non‐compartmental analysis (NCA) was performed using Phoenix WinNonlin v.6.3.
Both drugs (plitidepsin and BTZ) were measured by validated liquid extraction methods followed by ultra-performance liquid chromatography tandem mass-spectrometry detection (Dynakin, Derio, Spain). The calibration range for plitidepsin and BTZ was 0.25-100 ng/mL, and 0.1-5 ng/mL, respectively.

[5] = Plitidepsin whole blood pharmacokinetics, non-compartmental; format: in vivo; conditions: human, iv, mean (SD); for Cmax: NCA, UPLC-MS/MS
Protocol: as §1, §2
Both drugs (plitidepsin and BTZ) were measured by validated liquid extraction methods followed by ultra-performance liquid chromatography tandem mass-spectrometry detection (Dynakin, Derio, Spain). The calibration range for plitidepsin and BTZ was 0.25-100 ng/mL, and 0.1-5 ng/mL, respectively. The reference for plitidepsin PK results was a population-PK model of plitidepsin (data from 303 patients treated in seven phase II studies and one phase III study), which was used to simulate exposure in whole blood after one 3-hour i.v. infusion of 5.0 mg/m² of plitidepsin in patients with similar characteristics compared to those treated in this study (unpublished data). The reference for BTZ PK results was a phase I study in patients with MM (see Moreau et al (25)).

[6] = patients with MM treated with plitidepsin in other trials; ref unpublished data; cited from earlier work
Description: The plitidepsin concentrations found in this study fitted within the 90% prediction interval simulated for patients with MM, although most were above the 50th pe ...

[7] = tested on: MM cell lines and primary MM cells; conditions: cited from earlier work
Description: The positive results observed with plitidepsin and BTZ against MM (both as single agents and in combination with DXM), their different mechanisms of action, and the potential synergism of the triple combination warranted the exploration of the efficacy of plitidepsin plus BTZ and DXM in a clinical trial in patients with relapsed and/or refractory MM.

MM [8] = tested on: MM; set-up: method as in PMID 23950178, PMID 28642620, PMID 24429336, PMID 28847998, PMID 27091875; conditions: named drug in a BTZ and DXM-containing combination; cited from earlier work
[9] = phase III APEX trial (crossover from DXM to BTZ)
[10] = Dose level 1 4.0/1.0/40.0, Day 1 of Cycle 1, NCA, n = 6
[11] = Dose level 2 4.0/1.3/40.0, Day 1 of Cycle 1, NCA, n = 3
[12] = Dose level 3 (RD cohort) 5.0/1.3/40.0, Day 1 of Cycle 1, NCA, n = 9

Compound: CC(C)C[C@H](NC(=O)[C@H](Cc1ccccc1)NC(=O)c1cnccn1)B(O)O [BTZ, bortezomib]
- ORR (MM [1]; phase II RETRIEVE trial): 40%
- ORR (MM [1]; phase II SUMMIT trial, including minimal response while on BTZ treatment): 35%
- Complete response rate (MM [1]; [9]): 9%
- Overall response rate (MM [1]; [9]): 43%
- AUC (time zero to infinity) [2]: 151 (53.5) h*μg/L
- C max [2]: 16.5 μg/L and 16.5 (8.4) μg/L
- CL/F (total clearance after extravascular administration) [2]: 16.6 L/h and 16.6 (5.8) L/h
- HL (terminal half-life) [2]: 65.7 (46.5) h
- V z /F (apparent volume of distribution during terminal phase after extravascular administration) [2]: 1330 L and 1330 (578) L
- Patients pre-treated with BTZ-based regimens who responded again to the drug alone (MM [3]): 47%
- AUC (time zero to infinity) [4, 10]: 77.7 (17.9) h*μg/L
- CL/F (total clearance after extravascular administration) [4, 10]: 23.4 (6.79) L/h
- HL (terminal half-life) [4, 10]: 39.1 (9.22) h
- V z /F (apparent volume of distribution during terminal phase after extravascular administration) [4, 10]: 1308 (431) L
- C max ([4]; Dose level 1 4.0/1.0/40.0, Day 1 of Cycle 1, subcutaneous bolus, n = 6): 11.0 (7.71) μg/L
- AUC (time zero to infinity) [4, 11]: 134 (46.8) h*μg/L
- CL/F (total clearance after extravascular administration) [4, 11]: 17.9 (6.03) L/h
- HL (terminal half-life) [4, 11]: 51.5 (41.4) h
- V z /F (apparent volume of distribution during terminal phase after extravascular administration) [4, 11]: 1208 (52.4) L
- C max ([4]; Dose level 2 4.0/1.3/40.0, Day 1 of Cycle 1, subcutaneous bolus, n = 3): 16.9 (4.21) μg/L
- AUC (time zero to infinity) [4, 12]: 138 (88.6) h*μg/L
- CL/F (total clearance after extravascular administration) [4, 12]: 24.9 (19.2) L/h
- HL (terminal half-life) [4, 12]: 49.0 (17.8) h
- V z /F (apparent volume of distribution during terminal phase after extravascular administration) [4, 12]: 1658 (1457) L
- C max ([4]; Dose level 3 (RD cohort) 5.0/1.3/40.0, Day 1 of Cycle 1, subcutaneous bolus, n = 9): 17.0 (8.87) μg/L

Compound: CC[C@H](C)[C@H]1NC(=O)[C@@H](NC(=O)[C@@H](CC(C)C)N(C)C(=O)[C@@H]2CCCN2C(=O)C(C)=O)[C@@H](C)OC(=O)[C@H](Cc2ccc(OC)cc2)N(C)C(=O)[C@@H]2CCCN2C(=O)[C@H](CC(C)C)NC(=O)[C@@H](C)C(=O)[C@H](C(C)C)OC(=O)C[C@@H]1O [Plitidepsin, plitidepsin] (Pyruvoyl-P[dNMeL]T[X1]LP[NMeY](Me); ester 3-C (inferred); N-terminus assumed)
- Cmax ([5]; Dose level 1 4.0/1.0/40.0, Day 1 of Cycle 1, 3-h i.v. infusion, n = 5): 83.8 ng/mL
- AUC(0-inf) ([5]; Dose level 1 4.0/1.0/40.0, Day 1 of Cycle 1, NCA, n = 5, read-out: AUC (time zero to infinity)): 1260 ng·h/mL
- clearance ([5]; Dose level 1 4.0/1.0/40.0, Day 1 of Cycle 1, NCA, n = 5, read-out: CL (total clearance) (converted)): 94.5 mL/min
- half-life ([5]; Dose level 1 4.0/1.0/40.0, Day 1 of Cycle 1, NCA, n = 5, read-out: HL (terminal half-life) (converted)): 40.1 h
- Vd ([5]; Dose level 1 4.0/1.0/40.0, Day 1 of Cycle 1, NCA, n = 5, read-out: V ss (volume of distribution at steady-state)): 169 L
- Vd ([5]; Dose level 1 4.0/1.0/40.0, Day 1 of Cycle 1, NCA, n = 5, read-out: V z (apparent volume of distribution during terminal phase)): 185 L
- Cmax ([5]; Dose level 2 4.0/1.3/40.0, Day 1 of Cycle 1, 3-h i.v. infusion, n = 3): 117 ng/mL
- AUC(0-inf) ([5]; Dose level 2 4.0/1.3/40.0, Day 1 of Cycle 1, NCA, n = 3, read-out: AUC (time zero to infinity)): 1420 ng·h/mL
- clearance ([5]; Dose level 2 4.0/1.3/40.0, Day 1 of Cycle 1, NCA, n = 3, read-out: CL (total clearance) (converted)): 93.2 mL/min
- half-life ([5]; Dose level 2 4.0/1.3/40.0, Day 1 of Cycle 1, NCA, n = 3, read-out: HL (terminal half-life) (converted)): 46.2 h
- Vd ([5]; Dose level 2 4.0/1.3/40.0, Day 1 of Cycle 1, NCA, n = 3, read-out: V ss (volume of distribution at steady-state)): 192 L
- Vd ([5]; Dose level 2 4.0/1.3/40.0, Day 1 of Cycle 1, NCA, n = 3, read-out: V z (apparent volume of distribution during terminal phase)): 394 L
- Cmax ([5]; Dose level 3 (RD cohort) 5.0/1.3/40.0, Day 1 of Cycle 1, 3-h i.v. infusion, n = 9): 71.7 ng/mL
- AUC(0-inf) ([5]; Dose level 3 (RD cohort) 5.0/1.3/40.0, Day 1 of Cycle 1, NCA, n = 9, read-out: AUC (time zero to infinity)): 1060 ng·h/mL
- clearance ([5]; Dose level 3 (RD cohort) 5.0/1.3/40.0, Day 1 of Cycle 1, NCA, n = 9, read-out: CL (total clearance) (converted)): 157 mL/min
- half-life ([5]; Dose level 3 (RD cohort) 5.0/1.3/40.0, Day 1 of Cycle 1, NCA, n = 9, read-out: HL (terminal half-life) (converted)): 44.6 h
- Vd ([5]; Dose level 3 (RD cohort) 5.0/1.3/40.0, Day 1 of Cycle 1, NCA, n = 9, read-out: V ss (volume of distribution at steady-state)): 341 L
- Vd ([5]; Dose level 3 (RD cohort) 5.0/1.3/40.0, Day 1 of Cycle 1, NCA, n = 9, read-out: V z (apparent volume of distribution during terminal phase)): 671 L
- Median CL [6]: 4.4 L/h
- Median peripheral volume [6]: 513 L
- In vitro activity of the combination of plitidepsin with BTZ or DXM [7]: synergistic activity

Compound: Nc1cccc2c1CN(C1CCC(=O)NC1=O)C2=O (stereo not drawn) [lenalidomide]
- Median DoR (MM [8]): 8.7 months

Compound: Cc1[nH]c2ccccc2c1CCNCc1ccc(/C=C/C(=O)NO)cc1 [panobinostat]
- Median DoR (MM [8]): 6.0 months

Compound: Nc1cccc2c1C(=O)N(C1CCC(=O)NC1=O)C2=O (stereo not drawn) [pomalidomide]
- Median DoR (MM [8]): 7.4 months

Compound: CC1(C)CCC(CN2CCN(c3ccc(C(=O)NS(=O)(=O)c4ccc(NCC5CCOCC5)c([N+](=O)[O-])c4)c(Oc4cnc5[nH]ccc5c4)c3)CC2)=C(c2ccc(Cl)cc2)C1 [venetoclax]
- Median DoR (MM [8]): 9.7 months

Compound: elotuzumab
- Median DoR (MM [8]): 11.4 months
